Assays:
Assay in all cases: relative viability (nuclei count vs DMSO), 5 days (fraction); higher = more cells survive
MK-8033 + OSI-027 = compound: Cn1cc(-c2cnc3ccc4ccc(CS(=O)(=O)NCc5ccccn5)cc4c(=O)c3c2)cn1 [MK-8033] + COc1cccc2cc(-c3nc([C@H]4CC[C@H](C(=O)O)CC4)n4ncnc(N)c34)[nH]c12 [OSI-027] (partner 0.5 µM)
Method in brief: (§1)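 Cells from lung cancer lines were seeded into 1536-well plates and, one day later, dosed by pin tool. Treatments were either a single drug or a fixed dose of an anchor drug with five library-drug doses (not always all listed) in √10 steps. After 5 days, nuclei were stained in a one-step fixation (final 0.05% Triton X-100, 1% formaldehyde, 1 ug/ml Hoechst) and counted on 4× images, and relative viability is the treated-to-vehicle nuclei ratio, as the median of duplicate plates.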

Irinotecan + Linsitinib = compound: CCc1c2c(nc3ccc(OC(=O)N4CCC(N5CCCCC5)CC4)cc13)-c1cc3c(c(=O)n1C2)COC(=O)[C@]3(O)CC [Irinotecan] + C[C@]1(O)C[C@@H](c2nc(-c3ccc4ccc(-c5ccccc5)nc4c3)c3c(N)nccn32)C1 [Linsitinib] (partner 1 µM)
Method in brief: as §1

MK-8033 + Pemetrexed = compound: Cn1cc(-c2cnc3ccc4ccc(CS(=O)(=O)NCc5ccccn5)cc4c(=O)c3c2)cn1 [MK-8033] + Nc1nc2[nH]cc(CCc3ccc(C(=O)N[C@@H](CCC(=O)O)C(=O)O)cc3)c2c(=O)[nH]1 [Pemetrexed] (partner 0.2 µM)
Method in brief: as §1

MK-8033 + Luminespib = compound: Cn1cc(-c2cnc3ccc4ccc(CS(=O)(=O)NCc5ccccn5)cc4c(=O)c3c2)cn1 [MK-8033] + CCNC(=O)c1noc(-c2cc(C(C)C)c(O)cc2O)c1-c1ccc(CN2CCOCC2)cc1 [Luminespib] (partner 0.01 µM)
Method in brief: as §1

Cell Line	relative viability (MK-8033 + OSI-027; first compound 0.02 µM)	relative viability (MK-8033 + OSI-027; first compound 0.06325 µM)	relative viability (MK-8033 + OSI-027; first compound 0.2 µM)	relative viability (MK-8033 + OSI-027; first compound 0.6325 µM)	relative viability (MK-8033 + OSI-027; first compound 2 µM)	relative viability (Irinotecan + Linsitinib; first compound 0.6325 µM)	relative viability (Irinotecan + Linsitinib; first compound 2 µM)	relative viability (Irinotecan + Linsitinib; first compound 6.325 µM)	relative viability (Irinotecan + Linsitinib; first compound 20 µM)	relative viability (MK-8033 + Pemetrexed; first compound 0.02 µM)	relative viability (MK-8033 + Pemetrexed; first compound 0.06325 µM)	relative viability (MK-8033 + Pemetrexed; first compound 0.2 µM)	relative viability (MK-8033 + Pemetrexed; first compound 0.6325 µM)	relative viability (MK-8033 + Pemetrexed; first compound 2 µM)	relative viability (MK-8033 + Luminespib; first compound 0.02 µM)	relative viability (MK-8033 + Luminespib; first compound 0.06325 µM)	relative viability (MK-8033 + Luminespib; first compound 0.2 µM)	relative viability (MK-8033 + Luminespib; first compound 0.6325 µM)	relative viability (MK-8033 + Luminespib; first compound 2 µM)
NCI-H358	0.799	0.64	0.613	0.812	0.58	0.681	0.671	0.36	0.251	0.165	0.181	0.158	0.167	0.164	0.417	0.236	0.235	0.296	0.213
NCI-H441	0.653	0.597	0.698	0.788	0.469	0.547	0.339	0.241	0.341	0.246	0.274	0.254	0.266	0.255	0.403	0.375	0.352	0.336	0.305
NCI-H460	0.643	0.627	0.547	0.686	0.472	0.455	0.376	0.0862	0.0869	0.0659	0.0591	0.0606	0.0625	0.0649	0.0295	0.038	0.0269	0.0415	0.0328
NCI-H520	0.256	0.287	0.302	0.25	0.222	0.821	0.737	0.302	0.212	0.625	0.697	0.607	0.652	0.602	0.22	0.207	0.226	0.211	0.219
NCI-H596	0.798	0.612	0.607	0.706	0.599	1.01	1	0.556	0.537	0.463	0.436	0.489	0.506	0.53	1.02	0.987	0.802	1.01	0.946
NCI-H647	0.69	0.723	0.534	0.46	0.582	1.03	0.329	0.178	0.15	0.199	0.166	0.165	0.185	0.172	0.119	0.178	0.213	0.151	0.154
NCI-H650	0.539	0.527	0.491	0.503	0.554	0.701	0.562	0.237	0.303	0.982	0.955	0.863	0.933	0.83	0.827	0.787	0.819	0.833	0.769
NCI-H661	0.727	0.656	0.687	0.699	0.668	0.583	0.476	0.334	0.256	0.907	0.867	0.876	0.909	0.905	0.926	0.938	0.893	0.948	0.872
NCI-H838	0.374	0.368	0.361	0.407	0.412	1.17	0.849	0.372	0.228	0.249	0.246	0.227	0.27	0.22	0.248	0.292	0.335	0.296	0.273
NCI-H1355	0.366	0.296	0.404	0.423	0.411	0.671	0.403	0.2	0.201	1.03	0.996	0.965	1.05	1	0.695	0.686	0.607	0.74	0.646
NCI-H1395	0.557	0.555	0.601	0.644	0.615	–	0.804	0.484	0.29	0.921	0.758	0.693	0.914	0.815	0.764	0.559	0.526	0.735	0.584
NCI-H1437	1.03	0.849	0.808	0.839	0.83	0.61	0.593	0.28	0.142	0.295	0.281	0.308	0.319	0.308	1.11	1	1.05	1.08	1.04
NCI-H1563	0.789	0.8	0.727	0.807	0.724	1.09	1.27	0.969	0.718	0.736	0.695	0.738	0.69	0.794	0.491	0.589	0.541	0.483	0.539
NCI-H1651	0.735	0.541	0.757	0.646	0.699	0.803	0.542	0.203	0.159	0.633	0.561	0.56	0.685	0.582	1.02	0.846	0.733	0.853	0.874
NCI-H1666	0.886	0.754	0.771	0.94	0.803	0.71	0.414	0.403	0.384	0.784	0.775	0.915	0.788	0.772	1	0.987	0.979	1.03	0.924
NCI-H1734	0.59	0.508	0.612	0.632	0.547	0.797	0.355	0.155	0.195	0.423	0.403	0.393	0.398	0.431	0.173	0.177	0.176	0.182	0.17
